From US7135499B2, “Active substance combinations having insecticidal and acaricidal properties” (priority 2002, dated 2006)
Where “and” joins values, the source holds several entries; their conditions need not be identical. Equal values may be shown once. Read-outs that look alike come from different tables or passages of the source.

How the values were obtained:
[1] = tested on: caterpillars of the diamondback moth (Plutella xylostella, resistant strain); experiment: Plutella test, resistant strain; assay type: in vivo
[2] = tested on: caterpillars of the armyworm (Spodoptera frugiperda); experiment: Spodoptera frugiperda test; assay type: in vivo; details: for pest or weed control at 0.6 ppm: read-out: Kill rate in % found, 0.6 ppm; for pest or weed control at 0.16 ppm: read-out: Kill rate in % found, 0.16 ppm
[3] = tested on: Heliothis armigera caterpillars; experiment: Heliothis armigera test; assay type: in vivo; details: for pest or weed control at 3 ppm: read-out: Kill rate in % found, 3 ppm; for pest or weed control at 0.12 ppm: read-out: Kill rate in % found, 0.12 ppm; for pest or weed control at 0.024 ppm: read-out: Kill rate in % found, 0.024 ppm
[4] = tested on: larvae of the mustard beetle (Phaedon cochleariae); experiment: Phaedon larvae test
[5] = tested on: caterpillars of the diamondback moth (Plutella xylostella, sensitive strain); experiment: Plutella test, sensitive strain; assay type: in vivo
[6] = tested on: caterpillars of the armyworm (Spodoptera exigua); experiment: Spodoptera exigua test; assay type: in vivo
[7] = tested on: green peach aphid (Myzus persicea); experiment: Myzus test; assay type: in vivo
[8] = tested on: cotton aphid (Aphis gossypii); experiment: Aphis gossypii test; assay type: in vivo; details: after 6 d
[9] = Spodoptera frugiperda, 144 h, after 6 d
[10] = Helicoverpa armigera, 72 h, after 3 d
[11] = Helicoverpa armigera, 144 h, after 6 d
[12] = Spodoptera frugiperda, 72 h, after 3 d

COc1cccc(C(=O)NN(C(=O)c2cc(C)cc(C)c2)C(C)(C)C)c1C [methoxyfenozide]
Kill rate in % found ([1]; 0.6 ppm, after 6 d): 0% | pest or weed control at 0.6 ppm [2, 9]: 5% | pest or weed control at 3 ppm [3, 10]: 50%

O=C(NC(=O)c1c(F)cccc1F)Nc1ccc(Oc2ccc(C(F)(F)F)cc2Cl)cc1F [flufenoxuron]
Kill rate in % found ([4]; 3 ppm, after 3 d): 0% | Kill rate in % found ([5]; 0.12 ppm, after 3 d): 0% | Kill rate in % found ([1]; 0.12 ppm, after 6 d): 40% | Kill rate in % found ([6]; 0.6 ppm, after 3 d): 0% | pest or weed control at 0.12 ppm [3, 11]: 15%

CN/C(=N\[N+](=O)[O-])NCc1cnc(Cl)s1 [clothianidin]
Kill rate in % found ([7]; 0.6 ppm, after 6 d): 60% | pest or weed control at 3 ppm [3, 10]: 10%

N#C/N=C1\SCCN1Cc1ccc(Cl)nc1 [thiacloprid]
Kill rate in % found ([4]; 15 ppm, after 6 d): 85% | Kill rate in % found ([1]; 3 ppm, after 3 d): 5% | Kill rate in % found ([8]; 3 ppm): 50% | Kill rate in % found ([7]; 3 ppm, after 6 d): 60%

N#Cc1nn(-c2c(Cl)cc(C(F)(F)F)cc2Cl)c(N)c1[S+]([O-])C(F)(F)F (centres unmarked) [fipronil]
Kill rate in % found ([5]; 0.12 ppm, after 3 d): 65% | pest or weed control at 0.6 ppm [2, 12]: 20% | pest or weed control at 0.12 ppm [3, 11]: 10%

CN1COCN(Cc2cnc(Cl)s2)/C1=N/[N+](=O)[O-] [thiamethoxam]
Kill rate in % found ([4]; 15 ppm, after 3 d): 85% | Kill rate in % found ([1]; 3 ppm, after 6 d): 0% | Kill rate in % found ([7]; 0.6 ppm, after 1 d): 85%

abamectin
Kill rate in % found ([4]; 0.12 ppm, after 3 d): 25% | Kill rate in % found ([5]; 0.00096 ppm, after 3 d): 35% | Kill rate in % found ([6]; 3 ppm, after 6 d): 70% | Kill rate in % found ([2]; 3 ppm, after 3 d): 25% | Kill rate in % found ([3]; 0.0048 ppm, after 6 d): 30%

CC[S+]([O-])c1c(C#N)nn(-c2c(Cl)cc(C(F)(F)F)cc2Cl)c1N (centres unmarked) [ethiprole]
pest or weed control at 20 ppm ([2]; Spodoptera frugiperda, 144 h, read-out: Kill rate in % found, 20 ppm, after 6 d): 10%

emamectin-benzoate
Kill rate in % found ([4]; 0.006 ppm, after 6 d): 10% | Kill rate in % found ([5]; 0.00024 ppm, after 6 d): 10% | Kill rate in % found ([1]; 0.00024 ppm, after 6 d): 15% | Kill rate in % found ([6]; 0.0012 ppm, after 6 d): 20% | Kill rate in % found ([2]; 0.006 ppm, after 3 d): 70% | Kill rate in % found ([3]; 0.00024 ppm, after 6 d): 0%

CN/C(=N\[N+](=O)[O-])NCC1CCOC1 (centres unmarked) [dinotefuran]
pest or weed control at 3 ppm ([2]; Spodoptera frugiperda, 72 h, read-out: Kill rate in % found, 3 ppm, after 3 d): 40% | Kill rate in % found ([7]; 3 ppm, after 1 d): 15%

COC(=O)N(C(=O)N1COC2(C(=O)OC)Cc3cc(Cl)ccc3C2=N1)c1ccc(OC(F)(F)F)cc1 (centres unmarked) [indoxacarb]
Kill rate in % found ([4]; 0.6 ppm, after 3 d): 35% | Kill rate in % found ([5]; 0.024 ppm, after 3 d): 0% | Kill rate in % found ([1]; 0.12 ppm, after 6 d): 50% | Kill rate in % found ([6]; 0.6 ppm, after 3 d): 20% | pest or weed control at 0.6 ppm [2, 12]: 60% | pest or weed control at 0.024 ppm [3, 11]: 0%

Cc1cc(C(F)(C(F)(F)F)C(F)(F)F)ccc1NC(=O)c1cccc(I)c1C(=O)NC(C)(C)CS(C)(=O)=O [(I), N^2-[1,1-dimethyl-2-(methylsulphonyl)ethyl]-3-iodo-N^1-{2-methyl-4-[1,2,2,2-tetrafluoro-1-(trifluoromethyl)ethyl]phenyl}phthalamide]
Kill rate in % found ([4]; 0.12 ppm, after 3 d): 0% | Kill rate in % found ([4]; 0.12 ppm, after 6 d): 0% | Kill rate in % found ([4]; 0.6 ppm, after 3 d): 0% | Kill rate in % found ([4]; 3 ppm, after 3 d): 60% | Kill rate in % found ([4]; 3 ppm, after 6 d): 70% | Kill rate in % found ([5]; 0.0048 ppm, after 3 d): 0% | Kill rate in % found ([5]; 0.0048 ppm, after 6 d): 25% | Kill rate in % found ([5]; 0.0064 ppm, after 6 d): 60% | Kill rate in % found ([5]; 0.024 ppm, after 3 d): 55% | Kill rate in % found ([5]; 0.032 ppm, after 3 d): 65% | Kill rate in % found ([1]; 0.0048 ppm, after 6 d): 10% and 0% | Kill rate in % found ([1]; 0.02 ppm, after 6 d): 30% | Kill rate in % found ([1]; 0.024 ppm, after 3 d): 70% | Kill rate in % found ([8]; 500 ppm): 0% | Kill rate in % found ([6]; 0.024 ppm, after 6 d): 40% | Kill rate in % found ([6]; 0.032 ppm, after 4 d): 10% | Kill rate in % found ([6]; 0.12 ppm, after 6 d): 85% | pest or weed control at 0.16 ppm [2, 12]: 70% | pest or weed control at 0.16 ppm ([2]; Spodoptera frugiperda, 96 h, after 4 d): 70% | pest or weed control at 0.02 ppm ([2]; Spodoptera frugiperda, 144 h, read-out: Kill rate in % found, 0.02 ppm, after 6 d): 5% | pest or weed control at 0.16 ppm [2, 9]: 95% | Kill rate in % found ([7]; 100 ppm, after 1 d): 0% | Kill rate in % found ([7]; 500 ppm, after 6 d): 0% | pest or weed control at 0.024 ppm [3, 10]: 80% | pest or weed control at 0.1 ppm ([3]; Helicoverpa armigera, 72 h, read-out: Kill rate in % found, 0.1 ppm, after 3 d): 80% | pest or weed control at 0.12 ppm [3, 10]: 80% | pest or weed control at 0.032 ppm ([3]; Helicoverpa armigera, 96 h, read-out: Kill rate in % found, 0.032 ppm, after 4 d): 90% | pest or weed control at 0.024 ppm [3, 11]: 70%

O=C(NC(=O)c1ccccc1Cl)Nc1ccc(OC(F)(F)F)cc1 [triflumuron]
Kill rate in % found ([4]; 0.6 ppm, after 6 d): 0% | Kill rate in % found ([5]; 0.6 ppm, after 3 d): 0% | Kill rate in % found ([1]; 3 ppm, after 6 d): 0% | Kill rate in % found ([6]; 15 ppm, after 3 d): 15% | pest or weed control at 0.12 ppm ([2]; Spodoptera frugiperda, 72 h, read-out: Kill rate in % found, 0.12 ppm, after 3 d): 5% | pest or weed control at 15 ppm ([3]; Helicoverpa armigera, 72 h, read-out: Kill rate in % found, 15 ppm, after 3 d): 0%

CC1(C)[C@H](C(=O)O[C@H](C#N)c2cccc(Oc3ccccc3)c2)[C@@H]1C=C(Br)Br [deltamethrin]
Kill rate in % found ([5]; 0.00128 ppm, after 6 d): 40% | Kill rate in % found ([6]; 0.00128 ppm, after 4 d): 0% | pest or weed control at 0.0064 ppm ([2]; Spodoptera frugiperda, 96 h, read-out: Kill rate in % found, 0.0064 ppm, after 4 d): 0% | pest or weed control at 0.0064 ppm ([3]; Helicoverpa armigera, 96 h, read-out: Kill rate in % found, 0.0064 ppm, after 4 d): 10%

spinosad
Kill rate in % found ([5]; 0.0064 ppm, after 3 d): 5% | Kill rate in % found ([2]; 0.032 ppm, after 3 d): 35%
